The values that follow are results of earlier work, collected in patent publication US7456204B2, “Cyclohexylglycine derivatives as dipeptidyl peptidase inhibitors for the treatment or prevention of diabetes” (Merck & Co., Inc., priority 2003, dated 2008).

Each structure is given as a SMILES string.

The test system of data set [1] is cardiac allograft survival. Particulars: rats; from day 7 to day 14.
A further data set deals with hematopoiesis. Particulars: mouse, cyclophosphamide-induced neutropenia.
The next data set concerns the target T1, DP-IV (Homo sapiens, UniProt P27487).
T1 construct: GRF is rapidly degraded in plasma to GRF[3-44]

T1 sequence (P27487 39-766 limits assumed): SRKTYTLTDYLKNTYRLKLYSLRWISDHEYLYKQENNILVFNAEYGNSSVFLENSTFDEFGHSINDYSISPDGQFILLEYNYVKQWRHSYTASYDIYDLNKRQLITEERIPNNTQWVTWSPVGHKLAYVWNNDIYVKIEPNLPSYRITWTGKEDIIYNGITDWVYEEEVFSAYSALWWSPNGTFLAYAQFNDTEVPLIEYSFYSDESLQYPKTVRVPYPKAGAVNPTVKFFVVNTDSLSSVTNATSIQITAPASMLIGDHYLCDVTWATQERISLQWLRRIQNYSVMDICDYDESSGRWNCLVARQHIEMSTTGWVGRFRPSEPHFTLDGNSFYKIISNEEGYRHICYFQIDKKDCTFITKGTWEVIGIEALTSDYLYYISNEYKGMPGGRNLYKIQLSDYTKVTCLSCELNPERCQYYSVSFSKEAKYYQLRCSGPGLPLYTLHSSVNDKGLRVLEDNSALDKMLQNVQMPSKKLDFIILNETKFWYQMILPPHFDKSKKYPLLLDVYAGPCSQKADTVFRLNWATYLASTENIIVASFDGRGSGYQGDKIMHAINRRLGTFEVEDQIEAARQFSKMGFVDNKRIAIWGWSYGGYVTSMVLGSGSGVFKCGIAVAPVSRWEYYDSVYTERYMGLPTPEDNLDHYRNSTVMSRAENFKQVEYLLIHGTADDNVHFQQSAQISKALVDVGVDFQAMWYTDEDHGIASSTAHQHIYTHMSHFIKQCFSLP

Take `CC(C)N1CCC(c2ccccc2)(c2ccccc2)CC1` [Prodipine, Pro-Pro-diphenyl-phosphonate]: the cardiac allograft survival entry in data set [1] is listed as “double cardiac allograft survival”.
For the compound `CC(C)[C@H](N)C(=O)N1CCC[C@H]1B(O)O` [Val-Boro-Pro], the hematopoiesis result with hematopoiesis is given as “stimulated hematopoiesis”.
As for `CC[C@H](C)[C@H](N)C(=O)N1CCC[C@H]1C(=O)N[C@H](C(=O)O)[C@@H](C)CC` [diprotin A], at DP-IV, the “degradation of GRF in plasma to GRF[3-44]” value is listed as “prevented”.
